This note sets out measurements from patent US20220151989A1, “LIPOIC ACID PRODRUG” (SANTEN PHARMACEUTICAL CO., LTD., priority 2019, published 2022).

For series [1], the system named is anterior segment of the eye. The series is described as follows: Ocular Irritation Test-1: modified Draize test and slit lamp examination. To be noted: for slit lamp examination / irritation in anterior segment of the eye: 0.03% and 0.3% eye drops; for irritation in anterior segment of the eye: modified Draize test; for Irritation Score of anterior segment of the eye: Bulbar conjunctival hyperemia / Irritation Score of anterior segment of the eye: Discharge / Irritation Score of anterior segment of the eye: Flare of palpebral conjunctiva / Irritation Score of anterior segment of the eye: Hyperemia of nictitating membrane / Irritation Score of anterior segment of the eye: Palpebral conjunctival edema / Slit lamp observation: 50 μL/eye ten times at 30 minute intervals, 1 hour after last instillation. Also on record: key to Irritation Score of anterior segment of the eye: Palpebral conjunctival edema / Irritation Score of anterior segment of the eye: Bulbar conjunctival hyperemia / Irritation Score of anterior segment of the eye: Hyperemia of nictitating membrane / Irritation Score of anterior segment of the eye: Discharge / Slit lamp observation / Irritation Score of anterior segment of the eye: Flare of palpebral conjunctiva: +0.5: very slight; +1: slight; +2: moderate; +3: severe; —: No noteworthy findings. It is filed as in vivo, Japanese White rabbit. How it is done:
0.03% (w/v) and 0.3% (w/v) Compound 1 eye drops, and 0.03% (w/v) and 0.3% (w/v) Compound 3 eye drops were prepared in the same manner as Preparation of Test sample in Pharmacological test-2. Vehicle A was used for a vehicle group. 0.03% (w/v) and 0.3% (w/v) Compound 1 eye drops, 0.03% (w/v) and 0.3% (w/v) Compound 3 eye drops, and the vehicle were each instilled into the left eye of a Japanese White rabbit at a dose of 50 μL/eye with pipette ten times at 30 minute intervals. One hour after the final instillation, ocular irritation of anterior segment of the eye was evaluated according to the modified Draize test, and a slit lamp examination was performed. The contralateral eye was untreated. The ocular irritation of anterior segment of the eye was scored according to the following criteria: +0.5: very slight; +1: slight; +2: moderate; +3: severe

Series [2] concerns lens elasticity. Nature of the series: Pharmacological Test-4: lens elasticity, once-daily instillation for 2 weeks. It is filed as in vivo, C57BL/6J mice. The note with it: for Lens elasticity improvement: once per day for 14 days, 8-month-old mice. How it is done: The effect of once-daily instillation of Compound 1 for 2 weeks on the lens elasticity was examined.
Compound 1 was stirred with the addition of Vehicle A to give a 0.3% (w/v) emulsion, and the emulsion was diluted with the diluent to give a 0.1% (w/v) emulsion. Further, the resulting 0.1% (w/v) emulsion was diluted with the diluent to give a 0.03% (w/v) emulsion. Further, the resulting 0.03% (w/v) emulsion was diluted with the diluent to give a 0.01% (w/v) emulsion.
EV06 was sonicated with the addition of Vehicle A to give a 1.5% (w/v) solution, which was used for comparison to Compound 1 sample.
1) Each test sample (2.5 μL/eye) was instilled into the right eye of 8-month-old C57BL/6J mice with a Pipetman once per day (around 9:00) for 14 days. 2) After the final instillation, the mice were euthanized by carbon dioxide inhalation, and then the eyeballs were extracted and rinsed with Hank's balanced salt solution (HESS). 3) The sclera near the optic nerve was cut with a razor, the lens was removed through the incision, and the removed lens was immersed in HESS. 4) The lens was placed on a glass slide, and an all-in-one fluorescence microscope BZ-9000 (Keyence) was used to capture an image of the lens (Image a). 5) Next, one cover glass (Corning^(registered trade mark) 22×22 mm Square) was placed on the lens, and an image in which the thickness of the lens changed due to the weight was similarly captured (Image b). 6) A change in the lens diameter was calculated from the following Equation 1 wherein the lens diameter of Image a is subtracted from the lens diameter of Image b. Then, the lens elasticity improvement of each sample group compared with the vehicle control group was calculated from Equation 2 described below. The mean value of the vehicle control group was based on 5 eyes, the mean value of each of the sample groups of compound 1 and EV06 was based on 10 eyes.
(§1) Change in lens diameter=Lens diameter in Image b of each test sample−Lens diameter in Image a of each test sample (Equation 1)
(§2) Lens elasticity improvement of each sample group=Mean change in lens diameter of each Test sample group−Mean change in lens diameter of Vehicle control group (Equation 2)

The subject of series [3] is lens elasticity. Nature of the series: Pharmacological Test-3: lens elasticity, Compounds 5 and 6, 3 times per day for 14 days. The series is classed as in vivo,  mice. How it is done: The effects of Compounds 5 and 6 on the lens elasticity were investigated.
Compound 5 was stirred with the addition of Vehicle C to give a 0.03% (w/v) solution.
Compound 6 was stirred with the addition of Vehicle C to give a 0.03% (w/v) solution.
EV06 was stirred with the addition of Vehicle C to give a 0.03% (w/v) solution, which was used for comparison to the samples of Compounds 5 and 6.
1) Each test sample (2.5 μL/eye) was instilled into both eyes of 9-month-old […] mice with a Pipetman 3 times per day (around 9:00, 13:00 and 17:00) for 14 days. 2) After the final instillation, the mice were euthanized by carbon dioxide inhalation, and then the eyeballs were extracted and rinsed with Hank's balanced salt solution (HESS). 3) The sclera near the optic nerve was cut with a razor, the lens was removed through the incision, and the removed lens was immersed in HESS. 4) The lens was placed on a glass slide, and an all-in-one fluorescence microscope BZ-9000 (Keyence) was used to capture an image of the lens (Image a). 5) Next, one cover glass (Corning^(registered trade mark) 22×22 mm Square) was placed on the lens, and an image in which the thickness of the lens changed due to the weight was similarly captured (Image b). 6) A change in the lens diameter was calculated from the following Equation 1 wherein the lens diameter of Image a is subtracted from the lens diameter of Image b. Then, the lens elasticity improvement of each sample group compared with the vehicle control group was calculated from Equation 2 described below. The mean value of the vehicle control group was based on 8 eyes, and the mean value of each of the sample groups of Compounds 5 and 6 and EV06 was based on 10 eyes.
as §1, §2

Several values for one entry are separate records, joined by “and”; a condition that tells them apart may be missing. Equal values may be shown once.

On to `CC(C)=CCOC(=O)CCCC[C@@H]1CCSS1` [Compound 1, 3-Methyl-2-buten-1-yl (R)-5-(1,2-dithiolan-3-yl)pentanoate], for which, in series [1], the “slit lamp examination” value is “No abnormalities were observed” and the “irritation in anterior segment of the eye” value is given as “No irritation was observed”. Moreover, in series [1] (0.03% eye drop), the “Irritation Score of anterior segment of the eye: Bulbar conjunctival hyperemia” value (from here on “Irritation Score … Bulbar conjunctival hyperemia”) is on record as “—”, the “Irritation Score of anterior segment of the eye: Discharge” value (from here on “Irritation Score … Discharge”) is “—”, the “Irritation Score of anterior segment of the eye: Flare of palpebral conjunctiva” value (from here on “Irritation Score … of palpebral conjunctiva”) is reported as “—” and the “Irritation Score of anterior segment of the eye: Hyperemia of nictitating membrane” value (shortened to “Irritation Score … of nictitating membrane”) was “—”. Also, in series [1] (0.03% eye drop), the “Irritation Score of anterior segment of the eye: Palpebral conjunctival edema” value (shortened to “Irritation Score … Palpebral conjunctival edema”) was “—” and the Slit lamp observation entry is reported as “—”. In series [1] (0.3% eye drop), the “Irritation Score … Bulbar conjunctival hyperemia” value is listed as “—”, the “Irritation Score … Discharge” value is reported as “—”, the “Irritation Score … of palpebral conjunctiva” value is listed as “—” and the “Irritation Score … of nictitating membrane” value is recorded as “—”. In series [1] (0.3% eye drop), the “Irritation Score … Palpebral conjunctival edema” value was “—” and the Slit lamp observation entry is given as “—”. The Lens elasticity improvement with lens elasticity [2] (0.01% (w/v) emulsion) amounted to 12.2 μm. Moreover, in the series with lens elasticity [2] (0.03% (w/v) emulsion), the Lens elasticity improvement came out at 33.8 μm. The “lens elasticity improvement compared with 1.5% EV06 group” value in the series on lens elasticity [2] (0.03%, 0.1% and 0.3% sample groups, instilled once-daily) is listed as “excellent results compared to 1.5% EV06 group”. In addition, in the series on lens elasticity [2] (0.1% (w/v) emulsion), the Lens elasticity improvement worked out at 34.1 μm. Besides, the Lens elasticity improvement in the series on lens elasticity [2] (0.3% (w/v) emulsion) is given as 39.8 μm.

For the compound `O=C(CCCC[C@@H]1CCSS1)OCCN1CCN(CCO)CC1` [Compound 3], in series [1], the “slit lamp examination” value is given as “No abnormalities were observed” and the “irritation in anterior segment of the eye” value is “low”. In series [1] (0.03% eye drop), the “Irritation Score … Bulbar conjunctival hyperemia” value was “+1”, the “Irritation Score … Discharge” value is “+1”, the “Irritation Score … of palpebral conjunctiva” value is given as “+1” and the “Irritation Score … of nictitating membrane” value is on record as “+1”. In series [1] (0.03% eye drop), the “Irritation Score … Palpebral conjunctival edema” value was “+0.5” and the Slit lamp observation entry was “—”. In addition, in series [1] (0.3% eye drop), the “Irritation Score … Bulbar conjunctival hyperemia” value was “+1 and +2”; the “Irritation Score … Discharge” value was “+1”; the “Irritation Score … of palpebral conjunctiva” value is “+1”; the “Irritation Score … of nictitating membrane” value is given as “+1”. Also, in series [1] (0.3% eye drop), the “Irritation Score … Palpebral conjunctival edema” value is “+1 and +0.5”; the Slit lamp observation entry was “—”.

As to `C[N+](C)(C)CCOC(=O)CCCC[C@@H]1CCSS1.[Cl-]` [EV06, Lipoic acid choline ester, reference compound], the Lens elasticity improvement came to 3.6 μm with lens elasticity [3] (0.03% (w/v) solution in Vehicle C, both eyes, 3 times per day for 14 days, 9-month-old mice) and 5.8 μm with lens elasticity [2] (1.5% (w/v) solution in Vehicle A). In addition, in the series with lens elasticity [3] (at a concentration of 0.03%), the “lens elasticity improving effect” value is “did not show lens elasticity improving effect”.
